From PubChem BioAssay (NCI)
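Dose response: 5 concentrations. Exposure: 48 h. Format: 96-well plates. Endpoint: linear interpolation; highest concentration if not reached. At the GI50, growth is halved. Definition used: TGI = concentration required for complete inhibition of growth.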

Experiments:
Assay in all cases: NCI tumour cell line growth inhibition, 48 h
EKVX NSCLC = system: EKVX NSCLC
OVCAR-3 ovarian = system: OVCAR-3 ovarian
SF-268 CNS = system: SF-268 CNS
HOP-92 NSCLC = system: HOP-92 NSCLC
SNB-19 CNS = system: SNB-19 CNS
SNB-75 CNS = system: SNB-75 CNS
HCT-116 colon = system: HCT-116 colon
SK-MEL-28 melanoma = system: SK-MEL-28 melanoma
NCI-H23 lung = system: NCI-H23 lung
MDA-MB-231 breast = system: MDA-MB-231 breast
NCI/ADR-RES ovarian = system: NCI/ADR-RES ovarian
CCRF-CEM leukemia = system: CCRF-CEM leukemia
U251 CNS = system: U251 CNS
OVCAR-5 ovarian = system: OVCAR-5 ovarian
TK-10 renal = system: TK-10 renal
NCI-H460 lung = system: NCI-H460 lung
RXF 393 renal = system: RXF 393 renal
LOX IMVI melanoma = system: LOX IMVI melanoma
SK-OV-3 ovarian = system: SK-OV-3 ovarian
HCC-2998 colon = system: HCC-2998 colon
NCI-H226 lung = system: NCI-H226 lung
DU-145 prostate = system: DU-145 prostate
SF-539 CNS = system: SF-539 CNS
HL-60(TB) leukemia = system: HL-60(TB) leukemia
HT29 colon = system: HT29 colon
UACC-62 melanoma = system: UACC-62 melanoma
SN12C renal = system: SN12C renal
SK-MEL-5 melanoma = system: SK-MEL-5 melanoma
MALME-3M melanoma = system: MALME-3M melanoma
A498 renal = system: A498 renal
M14 melanoma = system: M14 melanoma
A549 NSCLC = system: A549 NSCLC
NCI-H522 lung = system: NCI-H522 lung
HS 578T breast = system: HS 578T breast
UACC-257 melanoma = system: UACC-257 melanoma
SR leukemia = system: SR leukemia
SW-620 colon = system: SW-620 colon
OVCAR-8 ovarian = system: OVCAR-8 ovarian
SF-295 CNS = system: SF-295 CNS
CAKI-1 renal = system: CAKI-1 renal
KM12 colon = system: KM12 colon
BT-549 breast = system: BT-549 breast
ACHN renal = system: ACHN renal
SK-MEL-2 melanoma = system: SK-MEL-2 melanoma
RPMI-8226 leukemia = system: RPMI-8226 leukemia
MDA-MB-435 = system: MDA-MB-435
MOLT-4 leukemia = system: MOLT-4 leukemia
HOP-62 NSCLC = system: HOP-62 NSCLC
COLO 205 colon = system: COLO 205 colon
786-0 renal = system: 786-0 renal
HCT-15 colon = system: HCT-15 colon
T-47D breast = system: T-47D breast
IGROV1 ovarian = system: IGROV1 ovarian
OVCAR-4 ovarian = system: OVCAR-4 ovarian
MCF7 breast = system: MCF7 breast
PC-3 prostate = system: PC-3 prostate
UO-31 renal = system: UO-31 renal

## N#CSc1c[nH]c2ccc(/C=C/C(=O)/C=C(O)/C=C/c3ccc4[nH]cc(SC#N)c4c3)cc12
EKVX NSCLC
  GI50: 1970 nM
  TGI: 10.7 µM
OVCAR-3 ovarian
  GI50: 515 nM
  TGI: 4.06 µM
SF-268 CNS
  GI50: 2650 nM
  TGI: 13.1 µM
HOP-92 NSCLC
  GI50: 1630 nM
  TGI: 4.46 µM
SNB-19 CNS
  GI50: 3.25 µM
  TGI: 15.5 µM
SNB-75 CNS
  GI50: 3.1 µM
  TGI: 21.4 µM
HCT-116 colon
  GI50: 296 nM
  TGI: 1190 nM
SK-MEL-28 melanoma
  GI50: 2000 nM
  TGI: 5.76 µM
NCI-H23 lung
  GI50: 2950 nM
  TGI: 13.6 µM
MDA-MB-231 breast
  GI50: 1720 nM
  TGI: 3.61 µM
NCI/ADR-RES ovarian
  GI50: 3.22 µM
  TGI: 52.7 µM
CCRF-CEM leukemia
  GI50: 612 nM
  TGI: 8.08 µM
U251 CNS
  GI50: 1170 nM
  TGI: 9.09 µM
OVCAR-5 ovarian
  GI50: 3.6 µM
  TGI: 14.8 µM
TK-10 renal
  GI50: 3.35 µM
  TGI: 23.8 µM
NCI-H460 lung
  GI50: 3.01 µM
  TGI: 11.2 µM
RXF 393 renal
  GI50: 538 nM
  TGI: 2930 nM
LOX IMVI melanoma
  GI50: 483 nM
  TGI: 1830 nM
SK-OV-3 ovarian
  GI50: 20.3 µM
  TGI: 80.2 µM
HCC-2998 colon
  GI50: 3.82 µM
  TGI: 16.6 µM
NCI-H226 lung
  GI50: 1950 nM
  TGI: 5.86 µM
DU-145 prostate
  GI50: 1920 nM
  TGI: 4.56 µM
SF-539 CNS
  GI50: 2870 nM
  TGI: 10.6 µM
HL-60(TB) leukemia
  GI50: 902 nM
  TGI: 4.34 µM
HT29 colon
  GI50: 1420 nM
  TGI: 3.84 µM
UACC-62 melanoma
  GI50: 2110 nM
  TGI: 7.11 µM
SN12C renal
  GI50: 1920 nM
  TGI: 10.9 µM
SK-MEL-5 melanoma
  GI50: 1520 nM
  TGI: 3.48 µM
MALME-3M melanoma
  GI50: 2220 nM
  TGI: 5.91 µM
A498 renal
  GI50: 7.61 µM
  TGI: 55.4 µM
M14 melanoma
  GI50: 864 nM
  TGI: 3.58 µM
A549 NSCLC
  GI50: 3.25 µM
  TGI: 14.7 µM
NCI-H522 lung
  GI50: 886 nM
  TGI: 2790 nM
HS 578T breast
  GI50: 2980 nM
  TGI: 35.2 µM
UACC-257 melanoma
  GI50: 2790 nM
  TGI: 12.5 µM
SR leukemia
  GI50: 505 nM
  TGI: 6.14 µM
SW-620 colon
  GI50: 668 nM
  TGI: 2350 nM
OVCAR-8 ovarian
  GI50: 2460 nM
  TGI: > 100 µM
SF-295 CNS
  GI50: 3.03 µM
  TGI: 13.3 µM
CAKI-1 renal
  GI50: 1580 nM
  TGI: 4.1 µM
KM12 colon
  GI50: 1660 nM
  TGI: 5.47 µM
BT-549 breast
  GI50: 1520 nM
  TGI: 8.04 µM
ACHN renal
  GI50: 568 nM
  TGI: 3.3 µM
SK-MEL-2 melanoma
  GI50: 3.23 µM
  TGI: 12.3 µM
RPMI-8226 leukemia
  GI50: 1560 nM
  TGI: 5.98 µM
MDA-MB-435
  GI50: 2060 nM
  TGI: 7.03 µM
MOLT-4 leukemia
  GI50: 1610 nM
  TGI: 5.44 µM
HOP-62 NSCLC
  GI50: 3.82 µM
  TGI: 19.8 µM
COLO 205 colon
  GI50: 1550 nM
  TGI: 3.7 µM
786-0 renal
  GI50: 956 nM
  TGI: 9.53 µM
HCT-15 colon
  GI50: 416 nM
  TGI: 2110 nM
T-47D breast
  GI50: 1970 nM
  TGI: 8.82 µM
IGROV1 ovarian
  GI50: 1190 nM
  TGI: 8.41 µM
OVCAR-4 ovarian
  GI50: 1420 nM
  TGI: 18.6 µM
MCF7 breast
  GI50: 871 nM
  TGI: 4.15 µM
PC-3 prostate
  GI50: 343 nM
  TGI: 2030 nM
UO-31 renal
  GI50: 344 nM
  TGI: 1660 nM
